Laboratory results reported in ChEMBL document CHEMBL1255520, “Azole derivatives as histamine H3 receptor antagonists, part I: thiazol-2-yl ethers” (Bioorg Med Chem Lett, 2010).

Biological target: Histamine H3 receptor (Homo sapiens, UniProt Q9Y5N1)
Experiment: Displacement of [125I]iodoproxyfan human histamine H3 receptor

Chain of Histamine H3 receptor (Q9Y5N1 whole entry): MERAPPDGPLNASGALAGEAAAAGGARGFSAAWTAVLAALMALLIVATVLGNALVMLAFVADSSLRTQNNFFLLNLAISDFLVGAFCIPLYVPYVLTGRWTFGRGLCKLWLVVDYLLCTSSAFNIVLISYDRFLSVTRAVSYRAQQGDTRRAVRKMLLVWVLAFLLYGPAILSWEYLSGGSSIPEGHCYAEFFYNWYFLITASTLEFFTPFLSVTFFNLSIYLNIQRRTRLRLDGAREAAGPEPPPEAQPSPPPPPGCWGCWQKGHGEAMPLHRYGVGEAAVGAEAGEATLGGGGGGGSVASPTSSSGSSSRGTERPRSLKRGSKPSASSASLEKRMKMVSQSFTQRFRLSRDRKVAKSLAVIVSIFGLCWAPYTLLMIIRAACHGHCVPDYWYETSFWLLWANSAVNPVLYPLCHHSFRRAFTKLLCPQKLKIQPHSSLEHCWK

| SMILES | Ki [nM] |
| --- | --- |
| CN1CCc2sc(OCCCN3CCCCC3)nc2C1 | 24 |
| CC(=O)c1nc(OCCCN2CCCCC2)sc1C | 155 |
| O=C1CCCc2sc(OCCCN3CCCCC3)nc21 | > 1000 |
| CCN1CCc2sc(OCCCN3CCCCC3)nc2C1 | 14 |
| C1CCN(CCCOc2nc3c(s2)CCN(CCCN2CCCCC2)C3)CC1 | 20 |
| Brc1nc(OCCCN2CCCCC2)sc1-c1ccccc1 | 93 |
| c1ccc(-c2nc(OCCCN3CCCCC3)sc2-c2ccccc2)cc1 | 11.2 |

Now from value to compound:

| Ki [nM] | SMILES |
| --- | --- |
| 257 | CN(C)CCCOc1nc2c(s1)CCN(C)C2 |
| > 1000 | CN(C)CCCOc1nc2c(s1)CCCC2 |
| > 1000 | CN(C)CCCOc1nc2c(s1)CCOC2 |
| 153 | CN(C)CCCOc1nc2c(s1)CCCC2=O |
| 357 | C1CCN(CCCOc2nc3c(s2)CCCC3)CC1 |
| 344 | C1CCN(CCCOc2nc3c(s2)CCOC3)CC1 |
| 261 | c1ccc(CN2CCc3sc(OCCCN4CCCCC4)nc3C2)cc1 |
| 41 | Cc1nc(OCCCN2CCCCC2)sc1-c1ccccc1 |
